Measurements taken from patent US9775854B2 (Indiana University Research and Technology Corp., priority 2006, dated 2017).
Entries after “also recorded” stand apart in the source; their conditions may differ.

What was measured:
IDUA and p53 genes = details: cited from earlier work
COS7 cells = test: Cytotoxicity (cell death, % inviability) in COS7 cells; format: cell-based
Protocol: Gentamicin and various congeners isolated and purified by, for example, the HPLC techniques outlined in Sandoval et al. were tested to assess their level of cytotoxicity. Briefly, COS7 cells were grown in the presence of either 200 or 500 ug/ml of one of the following test compounds, the C1 or the C2 congeners of gentamicin or native gentamicin. As a control still another batch of COS7 cells were grown in absence of all of the test compounds.
Referring now to FIG. 6 cell inviability was determined for cells exposed to no test compound, native gentamicin or a congener of gentamicin; in this graph a high value indicate […]. Cell death (% inviability) was determined for each of the six conditions.

UGAC stop codon = test: Stop codon readthrough assay; format: cell-based; details: 200 ug/ml, 24 hours
Protocol: The cells were exposed to 200 ug/ml of each compound for 24 hours.
The method used to assess readthrough is as follows.
In order to determine the optimal concentrations of the aminoglycosides to use in the mammalian translation system, increasing amounts of each aminoglycoside were added to a rabbit reticulocyte translation system while expressing the QX(N) (UGAC) construct. The effect of aminoglycoside addition on total protein synthesis was monitored by comparing the total amount of proteins synthesized in the presence and absence of various aminoglycosides. A range of aminoglycoside concentrations was then determined that allowed a maximal amount of termination suppression without inhibiting total protein synthesis more than two- to threefold. In vitro translation reactions were carried out using the TNT coupled transcription/translation system (Promega). […] The gel was dried and subjected to PhosphorImager analysis in order to quantitate the amount of truncated and full-length protein species. The percentage of readthrough was then calculated as the amount of full-length protein/(truncated+full-length species)×100.

viable cells = test: Cytotoxicity by dye exclusion assay (FIG. 7); format: cell-based; details: viable cells treated vs untreated
Protocol: FIG. 7 also includes information on the cell toxicity. Cytotoxicity was measured by comparing the number of viable cells in treated and untreated samples using a dye exclusion assay of the compounds tested. […] (the […]) was the most toxic compound tested 4.4 fold more toxic than the control (no added aminoglycoside) followed by […] (native gentamicin) 1.7 times more toxic than the control; the least toxic compound tested was […]

Bacillus subtilus = test: Bactericidal properties against Bacillus subtilus; format: cell-based
Protocol: (§1) Referring now to Formula 1 and FIG. 1, 4 congeners can be isolated and purified from native gentamicin. Methods for isolating and purifying congeners include the following method. Briefly, separation of native gentamicin was carried out using a C18 column (250×4.60 mm) and the chromatograms was developed using a Waters 600e HPLC pump (Milford, Mass.). A gradient of 100% of a 0.1% (vol/vol) mixture of tri-fluoro-acetic acid in acetonitrile was used to develop the chronogram. […] There was no overlap between adjacent peaks. For all studies, the same lot of gentamicin was used. This ensured that the results obtained were independent of potential alteration in the ratio of gentamicin components. […] For additional discussion of this methodology please see, for example, Sandoval, et al.

[1] = tested on: LLC-PK1 proximal tubule cells; details: results provided in Sandoval et al.; cited from earlier work
dystrophin = test: Dystrophin immunohistochemistry in mdx mice after i.m. treatment; format: in vivo; details: about 1 or 5 mg/day, 7 days
Protocol: Eight mdx mice are treated with I.M. injections of either gentamicin or the […] of gentamicin (C2 in Formula I) four of the mice receive either gentamicin or the […] at a dose of about 1 mg/day and the other four mice receive the same compounds at a dose of about 5 mg/day. The animals are dosed over a period of 7 days. […] All mice are sacrificed, their skeletal muscle and their hearts are frozen and cryostat sectioned. The presence of dystrophin in these sections is investigated by immunohistochemistry. Strong dystrophin immunostaining is observed in the normal skeletal and heart muscles. In the untreated mdx muscles, dystrophin immunostaining is observed only in a few revertant fibers. […] The dystrophin staining is less intense in the muscles of mice treated with […]. Therefore a dose of about 8 to 40 mg per Kg of body weight per day of either gentamicin or the […] of gentamicin successfully suppresses the premature stop codon by inserting an amino acid, and continuing translation of […] nucleic acids. Subcutaneous and intravenous administration will provide the same results. The duration of the course of treatment may vary. […]

[2] = tested on: proximal convoluted tubules; test: Kidney morphology and histology in rats (H&E, PAS, modified Jablonski score, gentamicin immunofluorescence); format: in vivo, Sprague-Dawley rats; details: six doses
Protocol: Morphologic evaluation of injury caused by gentamicin and its congeners was assessed by grading the extent of necrosis of the proximal convoluted tubules. Injury scores were assigned on the basis of the predominant pattern present. For indirect immunofluorescence, 100 μm-thick sections were cut on a vibratome and stained with the monoclonal anti-gentamicin antibody (Biodesign International, Saco, Me.) and a fluorescein-conjugated secondary antibody (Jackson Immunoresearch, West Grove, Pa.) and lightly counterstained with Alexa 647 phalloidin (Molecular Probes) to localize filamentous actin for visualization using confocal microscopy.
Histological sections were viewed with a Wide field Nikon microscope with an attached color CCD camera (Nikon, Melville, N.Y.). Fluorescence images were acquired using a Bio-Rad MRC 1024 confocal microscope (Bio-Rad, Hercules, Calif.) on a Nikon platform (The Fryer Co., Huntley, Ill.). Co-localization studies with Texas Red dextran, FITC-Helixpontatia, and gentamicin were conducted on a Zeiss 510 confocal microscope with images illuminated and acquired sequentially to eliminate bleed-over emissions from the different fluorescence emission spectra.
Again, these studies were conducted after 7 days of exposure, or six doses of gentamicin. This was to ensure that we would see any delayed nephrotoxicity from the […]. These studies occurred at a time when the native gentamicin-treated animals were recovering, as evidenced by a reduction in serum creatinine levels in these animals. Therefore, these studies likely underestimate the actual histological damage that occurred early on in animals treated with native gentamicin. […] In addition, large perinuclear vacuoles (FIG. 3 B, arrowheads) could be seen in the renal corticol area. […] Here, proximal tubules from native gentamicin treated rats contained cast material and shed cells in the lumen (thick arrow). In addition, many of the proximal table cells contained large vacuoles that localized around the nucleus (FIG. 3 B, arrowheads).
Referring now to FIG. 3 D-E, thin histological sections also were stained with PAS to localize the glycocalyx that was associated with the brush border membrane of proximal tubules. […]
Referring now to FIG. 3 G-H, when tissues from rats that were exposed to the native commercial gentamicin compound or the […] of gentamicin were processed for indirect immunofluorescence localization of gentamicin, a difference in the intracellular accumulation and distribution emerged. […] Tissue sections from rats that were treated with normal saline alone and processed identically for immunofluorescence localization produced no fluorescence associated with gentamicin localization (data not shown).

[3] = Nephrotoxicity in rats: serum creatinine after six daily doses
Protocol: (§2) Differences in necrosis, apoptosis, and cell density among the various congeners on the human and porcine cell lines were determined using an ANOVA function with Systat 11 software (Systat Software, Point Richmond, Calif.). […] All reported values are mean±SEM.
We specifically used six daily doses for these studies to allow additional time for the C2 component to induce injury, because it is widely known that serum creatinine rises early in this model when native gentamicin is used.

[4] = tested on: LLC-PK1 proximal tubule cells
Protocol: as §2
The nuclear dye propidium iodide is cell impermeant and labels only necrotic cells, characterized by permeable cell membranes; co-localization of the two dyes gives a reddish-pink color. […] Values are means±SEM. Bar=approximately 10 microns.
The nuclear dyes propidium iodide and Hoechst 33342 were used as markers for necrosis and apoptosis, respectively.

[5] = tested on: Gram-positive and multi-drug-resistant Gram-negative bacteria; details: Sandoval et al.; cited from earlier work
[6] = tested on: multi-drug resistant form of Klebsiella pneumoniae; test: Bactericidal properties against multi-drug resistant Klebsiella pneumoniae; format: cell-based
Protocol: as §1

LLC-PK1 cells = test: Long-term (24 h) exposure: lysosome and Golgi complex localization in LLC-PK1 cells; details: 24 h of continuous exposure
Protocol: During this period of exposure to native gentamicin or the congeners, lysosomes were labeled by adding a 10,000 molecular weight rhodamine dextran to the culture medium (0.5 mg/ml; Molecular Probes). The cells then were fixed and stained for indirect immunofluorescence and visualized via confocal microscopy. Briefly, the Golgi complex was localized with a fluorescein-conjugated lectin from Helix pornotia at 5 μg/ml (EY Laboratories, San Mateo, Calif.) diluted in solution that contained the CY-5 conjugated secondary antibody that was used in the indirect immunolocalization of gentamicin. Visualization of nonlysosomal, cytosolic gentamicin was carried out as described previously, using a Tyramide Signal Amplification (Molecular Probes).
In order to study long-term differences in the intracellular distribution of gentamicin, we undertook additional study of gentamicin distribution in LLC-PK1 cells. […]

[7] = LLC-PK1 cells, 24 hours of exposure

NCC[C@H](O)C(=O)N[C@@H]1C[C@H](N)[C@@H](O[C@H]2O[C@H](CN)[C@@H](O)[C@H](O)[C@H]2O)[C@H](O)[C@H]1O[C@H]1O[C@H](CO)[C@@H](O)[C@H](N)[C@H]1O [Amikacin]
premature stop codons overcome (IDUA and p53 genes): can be overcome

gentamicin C1 [reference compound]
toxicity ranking (cell death, % inviability) (COS7 cells; 200 or 500 ug/ml): greatest toxicity | readthrough of the UGAC stop codon (UGAC stop codon): minimal readthrough | toxicity relative to control (no added aminoglycoside) (viable cells): 4.4 fold

gentamicin C2
bactericidal properties (Bacillus subtilus): excellent bactericidal properties | toxicity in cell culture [1]: nontoxic | dystrophin immunostaining in skeletal and heart muscle (dystrophin): detected by immunohistochemistry on all muscle fibers and all heart muscle cells | renal injury, modified Jablonski score ([2]; rat cortex, compared with native gentamicin): significantly reduced; also recorded: significantly lower | kidney morphology, H&E-stained sections ([2]; rats, 7 days of exposure): normal morphology | lysosomal morphology in proximal tubule cells, indirect immunofluorescence ([2]; rats, 7 days of exposure): normal lysosomal morphology | proximal tubular brush border, PAS staining ([2]; rats, 7 days of exposure): more abundant and enriched PAS staining | change in serum creatinine (in words) ([3]; 100 mg/kg per day intraperitoneally, six daily doses): no elevation in serum creatinine | serum creatinine ([3]; 100 mg/kg per day intraperitoneally, six daily doses, up to 24 hours after the last injection): ≤ 0.2 mg/dL | functional and pathologic changes characteristic of gentamicin nephrotoxicity ([3]; animal studies): failed to induce | cell density, % of untreated (control) values [4, 7]: 80.3±5.7% | percentage of cell death (toxicity index) [4, 7]: 3.1±1.3% | cytotoxicity in cell culture (in words) ([4]; cultured cells, 24 hours of continual exposure): minimal cytotoxicity; also recorded: markedly reduced toxicity; also recorded: minimal evidence of toxicity | bactericidal potency compared with native gentamicin and other congeners [5]: as potent a bactericide | bactericidal properties [6]: excellent bactericidal properties | toxicity (cell death, % inviability) (COS7 cells; 200 ug/ml): virtually no toxicity | toxicity (cell death, % inviability) (COS7 cells; 500 ug/ml): only very minimal toxicity | Golgi complex staining with Helix pomatia lectin (LLC-PK1 cells): faint | lysosome appearance (Texas Red dextran) (LLC-PK1 cells): small, discrete vesicles found throughout the cellular cytosol | readthrough of the UGAC stop codon (UGAC stop codon): intermediate effect on readthrough | toxicity relative to control (no added aminoglycoside) (viable cells): no more toxic than the control

NC[C@H]1O[C@H](O[C@H]2[C@H](O)[C@@H](O[C@H]3O[C@H](CO)[C@@H](O)[C@H](N)[C@H]3O)[C@H](N)C[C@@H]2N)[C@H](N)C[C@@H]1O [Tobramicin]
premature stop codons overcome (IDUA and p53 genes): not
